The numbers were not newly measured in publication PMC5531494, “Target specificity, in vivo pharmacokinetics, and efficacy of the putative STAT3 inhibitor LY5 in osteosarcoma, Ewing's sarcoma, and rhabdomyosarcoma” (PLoS ONE, 2017), which cites them from elsewhere.

The conditions of this data set: earlier work of the authors; cited from earlier work.

As for `NS(=O)(=O)c1cccc2c1C(=O)c1cccc(O)c1C2=O` [LLL12], the oral bioavailability entry is “poor oral bioavailability”.
